Here are results for 6 compounds from patent US20090048179A1, “USE OF 5-PHOSPHODIESTERASE INHIBITORS TO ENHANCE THE PERMEABILITY OF THE BLOOD-BRAIN BARRIER OF ABNORMAL BRAIN TISSUE AND THE BLOOD-TUMOR BARRIER” (CEDARS-SINAI MEDICAL CENTER, priority 2005, published 2009).

One series relates to 9L glioma. The series can be described thus: Survival study, 9L/Fischer rats, treatment on days 7, 8 and 9 post tumor implantation. It counts as in vivo, rat. The following applies: treatment on days 7, 8 & 9; Levitra 10 mg/kg oral, Adriamycin 2 mg/kg i.v.; control 21.8. From the text:
Adult, female Fischer rats (180-200 g) were implanted with 9L glioma cells (100,000 cells). […] 15, 2006.
Rats were monitored daily to determine survival times of the tumor-bearing rats for either death or when animals became moribund, euthanasia was employed.

The test system of another series is 9L gliosarcoma. The series can be described thus: Survival study, 9L/Luc gliosarcoma-bearing rats, treatment for three days from day 4. It is filed as in vivo, rat. To be noted: vardenafil 10 mg/kg oral, Adriamycin 2 mg/kg i.v., saline 32±2. From the text:
A p-value of less than 0.05 was considered statistically significant.

The test system of a further series is 9L gliosarcoma (9L/Luc). Kind of series: Tumor size monitoring by bioluminescence imaging and histology. The following applies: day 9 after the last treatment; saline (2.21±1.27)×10^6.
Another series has as its system caveolae endocytosis. Kind of series: In vitro cellular transport of 14C-sucrose with inhibitor of caveolae endocytosis. It counts as cell-based. From the text:
To determine whether this is the case for PDE5 inhibitors, the inventor used filipin, an inhibitor of caveolae endocytosis, in the in vitro cellular transport study (FIG. 21; P<0.05 vs. other two treatments). As shown, fillipin abolished the increased transport of ^14C-sucrose by sildenafil. […] As vesicular transport is not specific to brain microvessels per se, the inventor, while not wishing to be bound by any particular theory, believes the mechanism may be responsible for the increased cellular permeability by PDE5 inhibitors in non-CNS cells studied above.

The test system of series [1] is blood-tumor barrier (BTB) of 9L gliosarcoma brain tumors. The series can be described thus: [14C] sucrose transport (Ki) from blood into 9L brain tumors, quantitative autoradiography. It counts as in vivo, rat.
Series [2] can be described thus: Animal physiologic parameters (mean arterial blood pressure, blood gases, side effects). To be noted: for reduction in mean-arterial blood pressure: BK femoral infusion, sildenafil 5-100 mg/kg or vardenafil 1-20 mg/kg oral; for detectable side effects (e.g. hypotension): oral doses used in the rats. It is filed as in vivo, rat. As to the method: For Ki study described below, six days after tumor implantation, the rats were anesthetized with ketamine/xylazine. One femoral vein was cannulated for administration of the appropriate drug and the radiotracer; one femoral artery was cannulated to withdraw arterial blood, and another femoral artery was cannulated to monitor systemic blood pressure. Body temperature was maintained at 37° C., and arterial blood gases, blood pressure and hematocrit were monitored.
Mean-arterial blood pressures were decrease approximately 30% secondary to the femoral infusion of BK.

Series [3] concerns mouse brain endothelial cells. The series can be described thus: In vitro cellular transport of 14C-sucrose, brain endothelial cells. It counts as cell-based.
Series [4] relates to vessel endothelial cells derived from lung tissues (PVEC). The series can be described thus: In vitro cellular transport of 14C-sucrose, lung vessel endothelial cells. It is filed as cell-based. To be noted: PVECs.
Series [5] deals with human brain metastatic lung cancer cell line CRL-5904. The series can be described thus: In vitro 14C-sucrose transport across tumor cells in transwell, CRL-5904. It counts as cell-based. On the procedure:
(§1) In addition to endothelial cells, the inventor tested whether the inhibition of PDE5 has any effect on tracer transport in other tumor cells. In the studies, two tumor cell lines (human brain metastatic lung cancer cell line CRL-5904 and human breast cancer cell line MDA-MB-231) were tested.

For series [6], the system named is human breast cancer cell line MDA-MB-231. Kind of series: In vitro 14C-sucrose transport across tumor cells in transwell, MDA-MB-231. It is filed as cell-based. On the procedure: as §1
Series [7] relates to cGMP. The series can be described thus: Plasma cGMP assay in 9L tumor-bearing rats. It is filed as in vivo, rat. On the procedure: cGMP levels were determined using a ELISA-based kit (Cayman Chemical Co., Ann Arbor, Mich.) for plasma and immunohistocytochemistry with anti-cGMP antibody (Chemicon Corp.) for tissue sections.
Intracerebral inoculations of 9L tumor cells were performed as described above. […] Different groups of rats were anesthetized 5 minutes before and at 30, 60, 90 and 120 minutes after treatment respectively and the femoral vein was cannulated. Blood was collected and the plasma was separated. The cGMP concentration in the plasma was determined using a commercially available ^125I-labeled cGMP assay kit (Amersham, Arlington Heights, Ill.). cGMP content was expressed as pmol/ml of plasma.

For series [8], the system named is cGMP. Kind of series: Brain cGMP immunohistochemistry in 9L tumor-bearing rats. The following applies: oral vardenafil 10 mg/kg. It is filed as in vivo, rat.
The mark [9] stands for this setting: femoral infusion of BK or oral sildenafil or vardenafil.

Where a name gives a salt, the structure may show the parent alone. No end group written: not given here.

For `COc1cccc2c1C(=O)c1c(O)c3c(c(O)c1C2=O)C[C@@](O)(C(=O)CO)C[C@@H]3O[C@H]1C[C@H](N)[C@H](O)[C@H](C)O1` [Adriamycin® (doxorubicin), doxorubicin hydrochloride], the “Mean Survival Days, Mean” value in the series on 9L glioma worked out at 30 days. In the series with 9L gliosarcoma, this compound showed a mean survival time of 42 ± 2 days. In the series with 9L gliosarcoma (9L/Luc), the “intracerebral tumor size (IVIS bioluminescence)” value is on record as “(1.03±0.28)×10^6”.
For the compound `CCCCC[C@@H](O)[C@H]1C(=O)O[C@H](C)[C@@H](O)/C=C/C=C/C=C/C=C/C=C(\C)[C@@H](O)C[C@H](O)C[C@H](O)C[C@H](O)C[C@H](O)C[C@H](O)C[C@@H]1O` [fillipin, filipin], the “effect on the increased transport of 14C-sucrose by sildenafil” value in the series on caveolae endocytosis is listed as “abolished”.
For the compound `CCCc1nn(C)c2c(=O)[nH]c(-c3cc(S(=O)(=O)N4CCN(C)CC4)ccc3OCC)nc12` [sildenafil], in [1] (rat, in vivo), the “dose giving maximal effect on permeability” value is reported as 50 mg/kg, the “increase in BTB permeability” value was found to be 1.8 fold and the “time of maximum transport across the BTB into tumor tissues after administration” value was determined as 60 min. In series [2], the “reduction in mean-arterial blood pressure” value came to 10% and the “detectable side effects (e.g. hypotension)” value (“detectable side effects” for short) is “did not result in any detectable side effects”. The “arterial blood pH, carbon dioxide, and partial pressure of oxygen” value (“arterial blood pH, carbon dioxide” below) in series [2] (setting [9]) is “not changed significantly”. Besides, the “detectable side effects” value in series [2] (listed as Viagra®) was “did not induce hypotension”. Besides, in series [3], the 14C-sucrose transport entry is on record as “significantly increased”. Also, the 14C-sucrose transport result in series [4] is recorded as “significantly increased”. Moreover, the “14C-sucrose transport across cells seeded in the transwell” value in series [5] is “increased”. Further, in [6], the “14C-sucrose transport across cells seeded in the transwell” value is listed as “increased”.
Turning to `CCCc1nc(C)c2c(=O)[nH]c(-c3cc(S(=O)(=O)N4CCN(CC)CC4)ccc3OCC)nn12` [vardenafil], the “reduction in mean-arterial blood pressure” value in series [2] came to 10%. Also, in series [2] (setting [9]), the “arterial blood pH, carbon dioxide” value is “not changed significantly”. The results for the “detectable side effects” value in [2] and in [2] (listed as Levitra®) were “did not result in any detectable side effects” and “did not induce hypotension”, respectively. For the same compound, the “plasma cGMP level” value was 54.96 ± 25.13 pg/mL in the series with cGMP [7] (30 minutes after oral vardenafil 10 mg/kg, control 0.72±0.48); 79.20 ± 37.36 pg/mL in the series with cGMP [7] (60 minutes after oral vardenafil 10 mg/kg); 30.13 ± 17.82 pg/mL with cGMP [7] (90 minutes after oral vardenafil 10 mg/kg). The “time of peak plasma cGMP concentration” value in the series with cGMP [7] (oral vardenafil 10 mg/kg) turned out to be 60 min. Further, the “time at which tumor cGMP immunostaining returned to the baseline” value with cGMP [8] was 90 min. Moreover, the “Mean Survival Days, Mean” value with 9L glioma is 22.7 days. The compound further registered a mean survival time in the series on 9L gliosarcoma of 35 ± 1 days.
For RPPGFSPFR [BK, Bradykinin], the “arterial blood pH, carbon dioxide” value in [2] (rat, in vivo, po) was “not changed significantly”.
As to “iberiotoxin (QFTDVDCSVSKECWSVCKDLFGVDRGKCMGKKCRCYQ; UniProt P24663 1-37, looked up)”, the “effect on vardenafil-induced BTB transport increase” value in [1] (iberiotoxin 0.26 μg/kg/min infused 15 min with oral vardenafil 10 mg/kg) is given as “abolished”.
